The supplement of paper PMC4862054

Tests used:
Conditions in all cases: incubation time: 72 h
[1] = test system: MFM-223; assay: drug sensitivity score (DSS), CellTiter-Blue viability (DSS (AUC-based score)); higher = stronger viability inhibition; extreme values may be limits of the assay
Procedure: (§1)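 DSRT with the CellTiter-Blue (resazurin reduction) viability readout, fluorescence 560/590 nm, 72 h incubation. Plates were normalised to DMSO and benzethonium chloride controls. DSS is computed from the area under the fitted dose-response curve (5 or 9 concentrations).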

[2] = test system: HCC1937; assay: as above
Procedure: as §1

[3] = test system: MDA-MB-453; assay: as above
Procedure: as §1

[4] = test system: HCC1143; assay: as above
Procedure: as §1

[5] = test system: SK-BR-3; assay: as above
Procedure: as §1

[6] = test system: CAL-120; assay: as above
Procedure: as §1

[7] = test system: MDA-MB-231; assay: as above
Procedure: as §1

[8] = test system: CAL-148; assay: as above
Procedure: as §1

[9] = test system: MDA-MB-436; assay: as above
Procedure: as §1

[10] = test system: MDA-MB-468; assay: as above
Procedure: as §1

[11] = test system: CAL-85-1; assay: as above
Procedure: as §1

[12] = test system: HDQ-P1; assay: as above
Procedure: as §1

[13] = test system: BT-549; assay: as above
Procedure: as §1

[14] = test system: MFM-223; assay: normalised viability (% of control), CellTiter-Blue; higher = more viable cells (about 100 = DMSO control)
Procedure: (§2)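 DSRT, CellTiter-Blue viability, 72 h incubation. Signal is normalised to DMSO and benzethonium chloride controls. Value is the normalised response at dose 3.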

[15] = test system: HCC1937; assay: as above
Procedure: as §2

[16] = test system: MDA-MB-453; assay: as above
Procedure: as §2

[17] = test system: HCC1143; assay: as above
Procedure: as §2

[18] = test system: SK-BR-3; assay: as above
Procedure: as §2

[19] = test system: BT-474; assay: as above
Procedure: as §2

[20] = test system: CAL-120; assay: as above
Procedure: as §2

[21] = test system: Hs578T; assay: as above
Procedure: as §2

[22] = test system: MDA-MB-231; assay: as above
Procedure: as §2

[23] = test system: DU-4475; assay: as above
Procedure: as §2

[24] = test system: CAL-148; assay: as above
Procedure: as §2

[25] = test system: MDA-MB-436; assay: as above
Procedure: as §2

[26] = test system: MDA-MB-468; assay: as above
Procedure: as §2

[27] = test system: CAL-85-1; assay: as above
Procedure: as §2

[28] = test system: HCC1599; assay: as above
Procedure: as §2

[29] = test system: BT-549; assay: as above
Procedure: as §2

Row | Compound | drug sensitivity score [1] | drug sensitivity score [2] | drug sensitivity score [3] | drug sensitivity score [4] | drug sensitivity score [5] | drug sensitivity score [6] | drug sensitivity score [7] | drug sensitivity score [8] | drug sensitivity score [9] | drug sensitivity score [10] | drug sensitivity score [11] | drug sensitivity score [12] | drug sensitivity score [13] | normalised viability ([14]; 100 nM) [%] | normalised viability ([15]; 100 nM) [%] | normalised viability ([16]; 10 nM) [%] | normalised viability ([17]; 100 nM) [%] | normalised viability ([18]; 100 nM) [%] | normalised viability ([19]; 100 nM) [%] | normalised viability ([20]; 100 nM) [%] | further results
1 | OC[C@H]1O[C@@H](n2cnc3c2N=CNC[C@H]3O)C[C@@H]1O [Pentostatin] | 0 | 0 | 0 | 0 | 0 | 0 | 0 | 0 | 0 | 0 | 0 | 0 | 0 | 95.8 | 106 | 104 | 112 | 97.6 | 109 | 103 | normalised viability ([21]; 100 nM): 91.5%; normalised viability ([22]; 100 nM): 94.9%; normalised viability ([23]; 10 nM): 109%; normalised viability ([24]; 10 nM): 111%; normalised viability ([25]; 100 nM): 99.1%; normalised viability ([26]; 100 nM): 107%; normalised viability ([27]; 10 nM): 103%; normalised viability ([28]; 100 nM): 97.6%; normalised viability ([29]; 100 nM): 80.9%
2 | N#CC[C@H](C1CCCC1)n1cc(-c2ncnc3[nH]ccc23)cn1 [Ruxolitinib] | 0 | 1.92 | 0 | 0 | 0 | 0 | 0 | 0 | 0 | 0 | 0 | 0 | 0 | 93.2 | 81.1 | 93 | 107 | 85.1 | 107 | 97.5 | normalised viability ([21]; 100 nM): 79.2%; normalised viability ([22]; 100 nM): 90.8%; normalised viability ([23]; 10 nM): 101%; normalised viability ([24]; 10 nM): 102%; normalised viability ([25]; 100 nM): 94.5%; normalised viability ([26]; 100 nM): 100%; normalised viability ([27]; 10 nM): 96.4%; normalised viability ([28]; 100 nM): 99.3%; normalised viability ([29]; 100 nM): 74.5%
3 | C=CC[C@@H]1/C=C(\C)C[C@H](C)C[C@H](OC)[C@H]2O[C@@](O)(C(=O)C(=O)N3CCCC[C@H]3C(=O)O[C@H](/C(C)=C/[C@@H]3CC[C@@H](O)[C@H](OC)C3)[C@H](C)[C@@H](O)CC1=O)[C@H](C)C[C@@H]2OC [Tacrolimus] | 0 | 0 | 0 | 0 | 0 | 0 | 0 | 0 | 0 | 0 | 0 | 0 | 0 | 99.2 | 93.7 | 112 | 110 | 91.8 | 113 | 110 | normalised viability ([21]; 100 nM): 109%; normalised viability ([22]; 100 nM): 112%; normalised viability ([23]; 10 nM): 112%; normalised viability ([24]; 10 nM): 102%; normalised viability ([25]; 100 nM): 108%; normalised viability ([26]; 100 nM): 119%; normalised viability ([27]; 10 nM): 101%; normalised viability ([28]; 100 nM): 123%; normalised viability ([29]; 100 nM): 102%
4 | C=CCNC1=C2C[C@@H](C)C[C@H](OC)[C@H](O)[C@@H](C)/C=C(\C)[C@H](OC(N)=O)[C@@H](OC)/C=C\C=C(/C)C(=O)NC(=CC1=O)C2=O [Tanespimycin] | 25.8 | 18.2 | 32.6 | 24.8 | 29.2 | 14.8 | 9.87 | 22.4 | 25.2 | 0 | 15.7 | 19.3 | 24.3 | 29.2 | 37.3 | 81 | 33.4 | 16.5 | 35.3 | 72.7 | normalised viability ([21]; 100 nM): 50.2%; normalised viability ([22]; 100 nM): 114%; normalised viability ([23]; 10 nM): 106%; normalised viability ([24]; 10 nM): 94%; normalised viability ([25]; 100 nM): 26.3%; normalised viability ([26]; 100 nM): 109%; normalised viability ([27]; 10 nM): 98.4%; normalised viability ([28]; 100 nM): 61.2%; normalised viability ([29]; 100 nM): 32.9%
5 | CO[C@H]1C[C@@H]2CC[C@@H](C)[C@@](O)(O2)C(=O)C(=O)N2CCCC[C@H]2C(=O)O[C@H]([C@H](C)C[C@@H]2CC[C@@H](OC(=O)C(C)(CO)CO)[C@H](OC)C2)CC(=O)[C@H](C)/C=C(\C)[C@@H](O)[C@@H](OC)C(=O)[C@H](C)C[C@H](C)/C=C/C=C/C=C/1C [Temsirolimus] | 20.8 | 0 | 31.8 | 11.1 | 17.9 | 16.4 | 0 | 25.6 | 5.67 | 13.1 | 14.7 | 7.62 | 18.1 | – | – | – | – | – | – | – | normalised viability ([14]; 10 nM): 49.8%; normalised viability ([15]; 10 nM): 56.5%; normalised viability ([16]; 1 nM): 32%; normalised viability ([17]; 10 nM): 77.1%; normalised viability ([18]; 10 nM): 50.5%; normalised viability ([19]; 10 nM): 69.3%; normalised viability ([20]; 10 nM): 55.8%; normalised viability ([21]; 10 nM): 50.2%; normalised viability ([22]; 10 nM): 68%; normalised viability ([23]; 1 nM): 89.8%; normalised viability ([24]; 1 nM): 54.5%; normalised viability ([25]; 10 nM): 85.8%; normalised viability ([26]; 10 nM): 68.3%; normalised viability ([27]; 1 nM): 65.7%; normalised viability ([28]; 10 nM): 90.8%; normalised viability ([29]; 10 nM): 68.2%
6 | C[C@]1(c2nc3c(C(N)=O)cccc3[nH]2)CCCN1 [Veliparib] | 0 | 0 | 0 | 0 | 0 | 0 | 0 | 0 | 0 | 0 | 0 | 0 | 0 | 89.9 | 85.4 | 99.4 | 75.6 | 72.5 | 101 | 74.8 | normalised viability ([21]; 100 nM): 76.7%; normalised viability ([22]; 100 nM): 92.3%; normalised viability ([23]; 10 nM): 98.2%; normalised viability ([24]; 10 nM): 89.1%; normalised viability ([25]; 100 nM): 84.1%; normalised viability ([26]; 100 nM): 97.6%; normalised viability ([27]; 10 nM): 90.8%; normalised viability ([28]; 100 nM): 116%; normalised viability ([29]; 100 nM): 104%
7 | CC[C@]1(O)C[C@@H]2CN(CCc3c([nH]c4ccccc34)[C@@](C(=O)OC)(c3cc4c(cc3OC)N(C)[C@H]3[C@@](O)(C(=O)OC)[C@H](OC(C)=O)[C@]5(CC)C=CCN6CC[C@]43[C@@H]65)C2)C1 [Vinblastine] | 13.1 | 32 | 20 | 19.4 | 35.2 | 32 | 27.7 | 18.7 | 18.7 | 21.6 | 17.8 | 18.2 | 25.2 | – | – | – | – | – | – | – | normalised viability ([14]; 10 nM): 76.7%; normalised viability ([15]; 10 nM): 20.6%; normalised viability ([16]; 1 nM): 98.4%; normalised viability ([17]; 10 nM): 40.6%; normalised viability ([18]; 10 nM): 13%; normalised viability ([19]; 10 nM): 49.7%; normalised viability ([20]; 10 nM): 19.1%; normalised viability ([21]; 10 nM): 14.7%; normalised viability ([22]; 10 nM): 20.1%; normalised viability ([23]; 1 nM): 102%; normalised viability ([24]; 1 nM): 107%; normalised viability ([25]; 10 nM): 51.5%; normalised viability ([26]; 10 nM): 39.3%; normalised viability ([27]; 1 nM): 101%; normalised viability ([28]; 10 nM): 107%; normalised viability ([29]; 10 nM): 26.3%
8 | CS(=O)(=O)c1ccc(C(=O)Nc2ccc(Cl)c(-c3ccccn3)c2)c(Cl)c1 [Vismodegib] | 0 | 1.01 | 0 | 0 | 0 | 0 | 0 | 0 | 4.6 | 0 | 0 | 0 | 0 | 104 | 107 | 108 | 87.7 | 66.7 | 101 | 87.7 | normalised viability ([21]; 100 nM): 80.1%; normalised viability ([22]; 100 nM): 94%; normalised viability ([23]; 10 nM): 108%; normalised viability ([24]; 10 nM): 96.8%; normalised viability ([25]; 100 nM): 85.6%; normalised viability ([26]; 100 nM): 113%; normalised viability ([27]; 10 nM): 114%; normalised viability ([28]; 100 nM): 86.2%; normalised viability ([29]; 100 nM): 112%
